Entries after “also recorded” stand apart in the source; their conditions may differ.
Tests used:
IGF1R [1] = test: IGF1R level by immunoblotting in transfected MDA-231 cells; type: cell-based, human
Procedure: (§1) The human and murine cell lines used in this study were cultured in RPMI 1640 plus 10% FCS at 37° C. in a humidified atmosphere of 5% CO2. The cultures were negative when tested for Mycoplasma infection. Cultures were passaged the day before transfection to achieve 30-50% confluence the following day. Initial transfections of ASOs used 1-2.5 μg/ml Cytofectin (Glen Research, Sterling, Va.), according to the manufacturer's instructions. Latterly Oligofectamine (Life Sciences) has been used for all ASO and RNAi transfections. The method was as described (see manufacturer's instructions and www.dharmacon.com) with minor modifications. For transfection of monolayers seeded in 6 well plates, 5 μl phosphorothioate oligonucleotide or RNA duplex at 100× final concentration were mixed with 2501 serum-free Optimem (Gibco-BRL). In a separate tube 2 μl Oligofectamine was mixed with 68 μl Optimem. After 10 min incubation at room temperature the contents of the two tubes were mixed and incubated for a further 25 min at room temperature. Monolayers were washed with 1-2 ml Optimem. To the cells were added 175 μl Optimem followed by the 325 μl complexes. Volumes were scaled up by factors of 2.22 or 6.05 for transfection in 60 mm or 100 mm dishes respectively. Cultures were incubated at 37° C. for 4 hr, and then 50 μl FCS and 3.5 ml RPMI plus 5% FCS were added to each well. After 48 hr incubation effects on IGF1R and IR expression were determined by immunoblotting. Some transfected cultures were serum-starved overnight, divided into two aliquots and treated with 10 nM Long R3-IGF-I (GroPep, Adelaide) or diluent for 30 min at 37° C. prior to lysis.
(§2) IGF1R expression was assessed by immunoblotting as previously described (Macaulay et al 2001). After washing in ice-cold PBS, cells were lysed in 50 mM Hepes pH 7.5, 100 mM NaCl, 10 mM EDTA, 1% Triton-X-100, 4 mM sodium pyrophosphate, 2 mM sodium orthovanadate, 10 mM sodium fluoride, 1 mM PMSF, 2 μg/ml each leupeptin and aprotinin. Lysates were centrifuged for 15 minutes at 14,000 g, the protein concentration of supernatants was measured using BCA assay reagent (Pierce), and equivalent amounts of protein were separated on 7.5% SDS-PAGE gels and transferred to nitrocellulose. Target protein levels were assessed using antibodies to the β-subunit of the IGF1R or IR (Santa Cruz), phospho-Ser 473 Akt or total Akt (Cell Signalling, New England Biolabs) or β-tubulin (Sigma). Activated IGF1R was detected by immunoprecipitation for phosphotyrosine (P-Tyr-100, Cell Signaling Technology). Primary antibodies were detected with HRP-conjugated secondary antibodies (Dako), and ECL Plus (Amersham Pharmacia).
The ASOs and RNAi duplexes were transfected into MDA-231 cells (human ER negative breast cancer) using Cytofectin or Oligofectamine, as described above. After 48 hr the cells were lysed, and IGF1R and IR levels were measured by immunoblotting. The intensity of the autoradiographic bands was quantified by densitometry, and IGF1R (or IR) levels were corrected for loading differences. The specific IGF1R or IR results are presented as % IGF1R (or IR) level of that in cells transfected with the same concentration of an appropriate control. This was a scrambled control oligonucleotide for ASOs, and an inverted RNA duplex for RNAi.

IGF1R [2] = test: IGF1R levels by immunoblotting in human tumour cell lines transfected with RNAi duplexes; type: cell-based; settings: for IGF1R level as % of levels in cells transfected with inverted control duplex: 10 nM duplex, 48 hr
Procedure: as §1
as §2, with “Pharmacia). […]” for “Pharmacia).”
Tumour cells were transfected with 10 nM duplexes and IGF1R levels were measured after 48 hr. After correction for loading differences IGF1R levels in cells transfected with RNAi were expressed as % of levels in cells transfected with equivalent inverted control duplex.

IGF1R [3] = test: IGF1R levels by immunoblotting in B16 murine melanoma cells transfected with RNAi duplexes; type: cell-based; settings: 10 nM duplex, 48 hr
Procedure: The human and murine cell lines used in this study were cultured in RPMI 1640 plus 10% FCS at 37° C. in a humidified atmosphere of 5% CO2. The cultures were negative when tested for Mycoplasma infection. Cultures were passaged the day before transfection to achieve 30-50% confluence the following day. Initial transfections of ASOs used 1-2.5 μg/ml Cytofectin (Glen Research, Sterling, Va.), according to the manufacturer's instructions. Latterly Oligofectamine (Life Sciences) has been used for all ASO and RNAi transfections. The method was as described (see manufacturer's instructions and www.dharmacon.com) with minor modifications. […] After 48 hr incubation effects on IGF1R and IR expression were determined by immunoblotting. […]
IGF1R expression was assessed by immunoblotting as previously described (Macaulay et al 2001). […] Lysates were centrifuged for 15 minutes at 14,000 g, the protein concentration of supernatants was measured using BCA assay reagent (Pierce), and equivalent amounts of protein were separated on 7.5% SDS-PAGE gels and transferred to nitrocellulose. Target protein levels were assessed using antibodies to the β-subunit of the IGF1R or IR (Santa Cruz), phospho-Ser 473 Akt or total Akt (Cell Signalling, New England Biolabs) or β-tubulin (Sigma). Activated IGF1R was detected by immunoprecipitation for phosphotyrosine (P-Tyr-100, Cell Signaling Technology). […]

IGF-I signaling to Akt = test: IGF signalling: phosphorylation of IGF1R β-subunit and Akt after IGF-I in transfected MDA-MB-231 cells; type: cell-based, human; settings: MDA-MB-231, 100 nM duplexes, 50 nM IGF-1 for 30 min
Procedure: as §2
MDA-MB-231 cells transfected with 100 nM RNA duplexes were serum-starved overnight and treated with 50 nM IGF-1 or diluent for 30 min. The cells were lysed and lysates were analysed by immunoblotting for IGF1R, phospho-Ser473-Akt and total Akt, and by phosphotyrosine immunoprecipitation and IGF1R immunoblotting to detect phosphorylated IGF1R β-subunit (see FIG. 7).

B16 melanoma cells = test: Growth in vivo of B16 melanoma cells transfected with RNA duplexes; settings: B16 cells transfected with 200 nM duplex on three consecutive days, flanks of C57BL mice
Procedure: FIG. 8 illustrates growth in vivo in C57BL mice of B16 melanoma cells transfected with RNA duplexes. B16 melanoma cells were transfected with 200 nM duplexes (RNA22 is R2, Inv22 is Inv2) or oligofectamine alone (OF) for three consecutive days. On the 4th day cells were injected into the flanks of C57BL mice, using 2.5×10^5 cells/mouse, using groups of 5 mice. Tumours were measured in 2 dimensions every 2-3 days. Tumour volumes were calculated as n(a×b^2)/6 where a is the larger and b the smaller dimension.
B16 cells were transfected with 200 nM RNA duplexes (RNA22=R2, 22Inv=Inv2) or oligofectamine alone (OF) for three consecutive days. On the 4th day cells were injected into the flanks of C57BL mice, using 2.5×10^5 cells/mouse, using groups of 5 mice. Tumours were measured in 2 dimensions every 2-3 days. Tumour volumes were calculated as n(a×b^2)/6 where a is the larger and b the smaller dimension.

IGF1R [4] = test: IGF1R Western blot in prostate cancer cells transfected with siRNA TSS; type: cell-based, human; settings: for IGF1R level, % of levels in cells treated with control duplex: 48 hours after transfection
Procedure: Prostate cancer cells were transfected with 200 nM siRNA TSS homologous to nt 166-186 of the IGF1R gene or inverted sequence control.
as §1, §2

[5] = test system: Human prostate cancer cells; test: Clonogenic survival of human prostate cancer cells transfected with siRNA TSS; type: cell-based; settings: all three prostate cancer cell lines (DU145, PC3, LNCaP), 200 nM
Procedure: FIG. 18 illustrates how IGF1R gene silencing inhibits survival of prostate cancer cells. Human prostate cancer cells were transfected with 200 nM TSS or control duplex. After 48 hr the cells were disaggregated and re-seeded in 10 cm dishes (2000 cells/dish). After 1-3 weeks incubation (depending on the cell line), visible colonies were stained and counted. Bars show mean±sem of triplicate dishes. **p<0.01, ***p<0.001 for comparison of survival in cultures treated with TSS versus control duplex.

DU145 and PC3 cells = test: Radio- and chemosensitivity of prostate cancer cells after IGF1R gene silencing (clonogenic, change in IC50); type: cell-based, human; settings: 200 nM duplex (FIG. 19)
Procedure: FIG. 19 illustrates that IGF1R gene silencing enhances chemosensitivity of androgen-resistant prostate cancer. PC3 cells were transfected with 200 nM TSS (red line) or scrambled sequence control duplex (green). After 48 hr the cells were disaggregated and re-seeded in 10 cm dishes (4000 cells/dish). The following day the cultures were treated with mitoxantrone at the indicated concentrations for 24 hours, after which the medium was changed and cells were allowed to survive to form colonies (>50 cells). Dotted lines mark IC501 dose required to inhibit survival to 50% untreated level.
Furthermore, IGF1R gene silencing appeared to enhance prostate cancer radio- and chemo-sensitivity (FIG. 19). The alteration in sensitivity was calculated as change in IC50, the concentration of drug/irradiation required to reduce the colony count to 50% of that in untreated cultures, as follows: [formula]

[6] = test system: Human EJ28 invasive bladder carcinoma cells; test: Survival and mitomycin-C sensitivity of EJ28 invasive bladder carcinoma cells; type: cell-based; settings: human bladder cancer cells
Procedure: FIG. 20 illustrates that IGF1R gene silencing inhibits survival and enhances chemosensitivity of invasive bladder cancer. Human EJ28 invasive bladder carcinoma cells were transfected with 200 nM TSS or control duplex. After 48 hr the cells were disaggregated and re-seeded. To measure survival, 2000 cells were seeded in 10 cm dishes. Survival in TSS-transfected cells was only 0.2% of that in control-treated cultures, p<0.001). For chemosensitivity testing, cells were re-seeded into 96-well plates. The following day cultures were treated with mitomycin-C at the indicated concentrations for 24 hours, after which the medium was changed. After a further 4 days, growth was measured by calorimetric assay (MTS assay).

[7] = test system: UC101 human ovarian cancer cells; test: Tumorigenicity of UC101 ovarian cancer cells transfected with siRNA (xenografts); type: in vivo, female athymic (nu/nu mice); settings: UC101 cells transfected with 200 nM siRNA, nu/nu mice
Procedure: UC101 ovarian cancer cells were transfected with 200 nM siRNA, mixed with irradiated NIH-3T3 cells and inoculated into the flanks of female athymic (nu/nu mice).
Tumorigenicity testing was conducted using UC101 human ovarian cancer cells transfected with 200 nM siRNA. After 48 hr the cells were inoculated into the flanks of female athymic (nu/nu mice), using 5×10^6 tumour cells mixed with 5×10^6 irradiated NIH-3T3 cells per mouse. Tumours were measured and volumes calculated as described (Macaulay et al., Oncogene 20: 2029-40, 2001). All procedures were performed in accordance with the Home Office Scientific Procedures Act 1986, and with the approval of the Animal Ethics Committee of Cancer Research UK.

| Substance | Inhibition of IGF1R expression on immunoblot (IGF1R [1]; MDA-231 breast cancer cells, 10-200 nM) | IGF1R level as % of levels in cells transfected with inverted control duplex (IGF1R [2]; A549 human non-small cell lung) | IGF1R level as % of levels in cells transfected with inverted control duplex (IGF1R [2]; DU145 human prostate cancer) | IGF1R level as % of levels in cells transfected with inverted control duplex (IGF1R [2]; ME human melanoma) | Inhibition of IGF1R expression on immunoblot (IGF1R [2]; ME melanoma cells, 10-200 nM) | IGF1R level as % of levels in cells transfected with inverted control duplex (IGF1R [3]) | IGF-I signaling to Akt / IGF-1-induced phosphorylation (IGF-I signaling to Akt) | Tumour growth in vivo compared with inverted control RNA duplex (B16 melanoma cells) | IGF1R gene silencing (IGF1R [1]; MDA-MB-231 human breast carcinoma cells) | IGF1R level, % of levels in cells treated with control duplex (IGF1R [4]; DU145, 200 nM) | IGF1R level, % of levels in cells treated with control duplex (IGF1R [4]; LNCaP, 200 nM) | IGF1R level, % of levels in cells treated with control duplex (IGF1R [4]; PC3, 200 nM) | Inhibition of IGF1R expression (IGF1R [4]; all three prostate cancer cell lines (DU145, PC3, LNCaP)) | Inhibition of clonogenic survival [5] | Change in mitoxantrone IC50 (DU145 and PC3 cells) | Clonogenic survival [6] | Sensitivity to mitomycin-C ([6]; MTS assay) | IGF1R downregulation compared between 21mer duplexes (IGF1R [1]; MDA-231 cells, 0.5, 5 and 50 nm (FIG. 5)) | IGF1R downregulation (IGF1R [2]; 10 nM, human ME melanoma and A549 NSCLC) | Tumour development [7] |
| --- | --- | --- | --- | --- | --- | --- | --- | --- | --- | --- | --- | --- | --- | --- | --- | --- | --- | --- | --- | --- |
| R2: RNAi duplex GCCGAUGUGUGAGAAGACCTT / TTCGGCUACACACUCUUCUGG, SEQ ID NO:23 (sense GCCGAUGUGUGAGAAGACCNN; chemistry not fully specified; one strand is listed 3' to 5') | almost complete inhibition of IGF1R expression | 22 ± 2% | 34 ± 13% | 53 ± 3% | almost complete inhibition of IGF1R expression | 45 ± 4% | could not detect IGF-1-induced phosphorylation of the IGF1R β-subunit or of Akt | reduced growth rate in vivo | – | – | – | – | – | – | – | – | – | – | – | – |
| siRNA TSS: 21mer duplex homologous to nucleotides 166-186 of the IGF1R transcript, CGACUAUCAGCAGCUGAAGTT / TTGCUGAUAGUCGUCGACUUC, SEQ ID NO:37 (CGACUAUCAGCAGCUGAAGNN; second strand not cited, chemistry not fully specified) | – | – | – | – | – | – | – | – | induce IGF1R gene silencing | 18% | 17% | 22% | significant inhibition | significant inhibition | −2 fold | profound inhibition of clonogenic survival | enhancement of sensitivity to mitomycin-C | – | – | – |
| R6: RNAi duplex CUACAUUGUGGGGAAUAAGTT / TTGAUGUAACACCCCUUAUUC, SEQ ID NO:34 (CUACAUUGUGGGGAAUAAGNN; second strand not cited, chemistry not fully specified) | – | 102 ± 16% | 74 ± 8% | 104 ± 5% | – | 72 ± 14% | not sufficient to abolish IGF-I signaling to Akt | – | – | – | – | – | – | – | – | – | – | significantly less potent; also recorded: less than the effect of the mutant duplex Mut2 | essentially inactive | rapidly growing tumours |

— patent publication US20050255493A1, “Molecular targeting of the IGF-1 receptor” (priority 2002, published 2005)
